Measurements published in US20050256103A1, “Indole derivative having piperidine ring” (Eisai Co., Ltd., priority 2004, published 2005).
Read-outs that look alike come from different tables or passages of the source.

Columns and labels:
male C57BL mice = test: Antianxiety effect by mouse light/dark box test; assay type: in vivo; settings: sc, 30 minutes before test, 5 min observation, N 7
Experimental: (1) The method of Belzung C., Misslin R., and Vogel E. (Reference: Behavioural effects of the benzodiazepine receptor partial agonist RO16-6028 in mice, Psychopharmacology, 97, 388-391, 1989) was modified. The present mouse light/dark box test was carried out according to such a modified method. As a test device used in this test, a lidded black acryl box (dark box, 15×10×20 cm) was connected to a lidless white acryl box (light box, 15×20×20 cm) using a black-acryl tunnel (10×7×4.5 cm), so as to prepare a light/dark box in which a mouse can freely move between the dark box and the light box. In this test device, in order to observe the behavior of the mouse, the anterior surface (20×20 cm) and back surface (20×20 cm) of the light box were made from transparent acryl. The illumination was set to provide in an illuminance of 150 Lux on the floor of the light box. Thereafter, each of male C57BL mice (20-35 g) was placed in the dark box, and the test was started. In this test, a test substance was subcutaneously administered to the test animal 30 minutes before the initiation of the test.
A state where the 4 legs of the mouse were contacted with on the floor of the light box was defined as stay at a light place, and the time when the mouse stayed at a light place was measured. The obtained time was used as an index of antianxiety action.

Sprague-Dawley male rats = test: Effect of controlling memory disorder induced by 8-OH-DPAT in rats (8-arm radial maze); assay type: in vivo, rat; settings: 0.3 mg/kg, s.c., 20 min before 8-OH-DPAT 0.5 mg/kg s.c.; Mean ± S.E., N 8
Source text: (1) A Sprague-Dawley male rats (130-200 g) were bred in an individual cage and used in the present test. For appetite stimulation, the body weight of the rats was reduced to approximately 80% of the original weight by fasting. […] As a maze test, an elevated 8-arm radial maze (central platform diagonal length: 34 cm, arm length: 60 cm; arm width: 12 cm) was used. In order to allow the rats to remember the positions of baits placed on the arms, the rats were left on the platform of the maze in which baits had been placed on the tips of the 4 predetermined arms. Thereafter, the rats were left on the maze for a certain period of time or until it ate all the baits. This training was carried out 1 to 3 times a day. The rats that had sufficiently learned were subjected to the following experiment. A solvent or test substance was subcutaneously administered to the rats. Twenty minutes later, 0.5 mg/kg 8-OH-DPAT was subcutaneously administered thereto. Further, 20 minutes later, the same maze test as that in the training was carried out. A reference memory error was defined as an action to enter arms on which no baits had been placed, and a working memory error was defined as an action to enter again arms on which baits had previously been placed. Thus, the actions of the rat were recorded. In addition, the time required for the rat to take all the four baits was also recorded. […] (Reference:Yoshihiro Hiraga, “Effects of scopolamine upon delayed radial-arm maze performance in rats” Folia pharmacol. Japon. 97, 351-359 (1991)) The results are shown in Table 4.

5-HT1A receptor = target: T1, 5-HT1A receptor (Sus scrofa, UniProt A0A4X1UTF5); test: Affinity for serotonin 1A receptor: inhibition of [3H]MPPF binding in swine hippocampal membrane fraction; settings: for IC50: [3H]MPPF 0.5 nM, swine hippocampal membrane, 37°C 30 min
T1 construct: Swine hippocampus was homogenized in a 50 mM Tris-Hcl buffer; from tissue; host or cells: swine hippocampus, membrane fraction
T1 sequence (A0A4X1UTF5 1-422): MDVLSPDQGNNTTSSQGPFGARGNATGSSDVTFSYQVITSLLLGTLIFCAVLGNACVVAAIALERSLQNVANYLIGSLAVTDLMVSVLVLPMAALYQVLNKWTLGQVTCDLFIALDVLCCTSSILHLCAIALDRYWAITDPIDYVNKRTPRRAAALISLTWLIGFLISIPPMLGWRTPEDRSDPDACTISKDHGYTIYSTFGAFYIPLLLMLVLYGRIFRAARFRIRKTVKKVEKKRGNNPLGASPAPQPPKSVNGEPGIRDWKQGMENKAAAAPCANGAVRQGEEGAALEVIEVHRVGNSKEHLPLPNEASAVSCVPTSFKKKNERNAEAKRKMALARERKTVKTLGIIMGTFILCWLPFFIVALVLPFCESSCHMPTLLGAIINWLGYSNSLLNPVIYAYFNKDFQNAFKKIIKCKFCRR
Method in brief: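 Swine hippocampal membranes incubated 30 min at 37 °C with 0.5 nM [3H]MPPF and test compound in 50 mM Tris-HCl pH 7.4, 1% DMSO, with 10 mM MgCl2 (G-protein-coupled, high-affinity state) or 1 mM Gpp(NH)p (uncoupled, low-affinity state). Bound radioactivity measured by filtration and scintillation counting; nonspecific binding defined with 10 μM WAY-100,635. IC50 in each state; low/high IC50 ratio taken as an estimate of intrinsic activity.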

IC50 (5-HT1A receptor; receptor in high affinity (G-protein binding, MgCl2 10 mM) state, read-out: High affinity IC50): 0.2 nM | IC50 (5-HT1A receptor; receptor in low affinity (G-protein non-binding, Gpp(NH)p 1 mM) state, read-out: Low affinity IC50): 0.16 nM | L/H ratio (5-HT1A receptor; low affinity IC50 divided by high affinity IC50, 1 or smaller = no intrinsic activity, 2 or greater = intrinsic activity): 0.8
Structure (SMILES): CNC(=O)c1ccc2ccn(C3CCN(CCc4c(OC)ccc5c4OC(C)(C)CC5=O)CC3)c2c1 [Compound 20, 1-{1-[2-(7-methoxy-2,2-dimethyl-4-oxochroman-8-yl)ethyl]piperidin-4-yl}-N-methyl-1H-indole-6-carboxamide]
Time of stay at light place (male C57BL mice; 0.03 mg/kg): 46 ± 9.4 s | Time of stay at light place (male C57BL mice; 0.1 mg/kg): 67 ± 19 s | Elapsed time (Sprague-Dawley male rats): 52 ± 9.9 s | Number of reference memory errors (Sprague-Dawley male rats): 1.50 ± 0.57 | Number of working memory errors (Sprague-Dawley male rats): 0.25 ± 0.16
